According to PubChem BioAssay AID180 (DTP/NCI, 2004):
Where “and” joins values, the source holds several entries; their conditions need not be identical. Equal entries are not always repeated.

System: BDF1 mice, Adenocarcinoma 755 s.c., tumor weight T/C
Assay: NCI In Vivo Anticancer Drug Screen. Data for tumor model Adenocarcinoma 755 (subcutaneous) in B6D2F1 (BDF1) mice
Conditions: endpoint: mean tumor weight, higher = larger tumour
Method in brief: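 In vivo antitumor screen on a transplantable tumor line. Result equals the measure in compound-treated animals divided by the same measure in vehicle controls.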

[1] = dose: 12.5 mg/kg/injection, schedule: Q01DX011 (ip), vehicle: other
[2] = dose: 25.0 mg/kg/injection, schedule: Q01DX011 (ip), vehicle: carboxymethylcellulose (CMC)
[3] = dose: 37.5 mg/kg/injection, schedule: Q01DX011 (ip), vehicle: carboxymethylcellulose (CMC)
[4] = dose: 50.0 mg/kg/injection, schedule: Q01DX011 (ip), vehicle: carboxymethylcellulose (CMC)
[5] = dose: 100.0 mg/kg/injection, schedule: Q01DX011 (ip), vehicle: carboxymethylcellulose (CMC)
[6] = dose: 5.0 mg/kg/injection, schedule: Q01DX011 (ip), vehicle: carboxymethylcellulose (CMC)

Nc1nc2n[nH]nc2c(=O)[nH]1
T/C (dose: 11.18 mg/kg/injection, schedule: Q01DX011 (ip), vehicle: carboxymethylcellulose (CMC)): 80 % of control
T/C [1]: 62 % of control and 80 % of control
T/C (dose: 13.55 mg/kg/injection, schedule: Q01DX011 (ip), vehicle: carboxymethylcellulose (CMC)): 85 % of control
T/C (dose: 17.88 mg/kg/injection, schedule: Q01DX011 (ip), vehicle: carboxymethylcellulose (CMC)): 98 % of control
T/C (dose: 22.35 mg/kg/injection, schedule: Q01DX011 (ip), vehicle: carboxymethylcellulose (CMC)): 70 % of control and 76 % of control
T/C (dose: 27.1 mg/kg/injection, schedule: Q01DX011 (ip), vehicle: carboxymethylcellulose (CMC)): 80 % of control
T/C (dose: 29.8 mg/kg/injection, schedule: Q01DX011 (ip), vehicle: carboxymethylcellulose (CMC)): 59 % of control
T/C (dose: 37.5 mg/kg/injection, schedule: Q01DX011 (sc), vehicle: carboxymethylcellulose (CMC)): 11 % of control
T/C (dose: 44.7 mg/kg/injection, schedule: Q01DX011 (ip), vehicle: carboxymethylcellulose (CMC)): 17 % of control and 33 % of control
T/C (dose: 75.0 mg/kg/injection, schedule: Q01DX011 (sc), vehicle: carboxymethylcellulose (CMC)): 5 % of control
T/C (dose: 89.4 mg/kg/injection, schedule: Q01DX011 (ip), vehicle: carboxymethylcellulose (CMC)): 4 % of control and 6 % of control
T/C (dose: 108.4 mg/kg/injection, schedule: Q01DX011 (ip), vehicle: carboxymethylcellulose (CMC)): 3 % of control and 4 % of control

CCCCOP(=S)(N1CC1)N1CC1
T/C (dose: 0.19 mg/kg/injection, schedule: Q01DX011 (ip), vehicle: other): 44 % of control
T/C (dose: 0.19 mg/kg/injection, schedule: Q01DX011 (ip), vehicle: saline): 102 % of control
T/C (dose: 0.37 mg/kg/injection, schedule: Q01DX011 (ip), vehicle: other): 38 % of control
T/C (dose: 0.37 mg/kg/injection, schedule: Q01DX011 (ip), vehicle: saline): 97 % of control
T/C (dose: 0.75 mg/kg/injection, schedule: Q01DX011 (ip), vehicle: carboxymethylcellulose (CMC)): 73 % of control
T/C (dose: 0.75 mg/kg/injection, schedule: Q01DX011 (ip), vehicle: other): 26 % of control
T/C (dose: 0.75 mg/kg/injection, schedule: Q01DX011 (ip), vehicle: saline): 113 % of control
T/C (dose: 1.5 mg/kg/injection, schedule: Q01DX011 (ip), vehicle: carboxymethylcellulose (CMC)): 78 % of control
T/C (dose: 1.5 mg/kg/injection, schedule: Q01DX011 (ip), vehicle: other): 14 % of control
T/C (dose: 1.5 mg/kg/injection, schedule: Q01DX011 (ip), vehicle: saline): 90 % of control
T/C (dose: 3.0 mg/kg/injection, schedule: Q01DX011 (ip), vehicle: carboxymethylcellulose (CMC)): 23 % of control
T/C (dose: 3.0 mg/kg/injection, schedule: Q01DX011 (ip), vehicle: other): 7 % of control
T/C (dose: 3.0 mg/kg/injection, schedule: Q01DX011 (ip), vehicle: saline): 42 % of control
T/C (dose: 3.0 mg/kg/injection, schedule: Q## X000 (ip), vehicle: saline): 460 % of control
T/C (dose: 6.0 mg/kg/injection, schedule: Q## X000 (ip), vehicle: saline): 153 % of control
T/C (dose: 12.0 mg/kg/injection, schedule: Q## X000 (ip), vehicle: saline): 23 % of control

COC(=O)c1[nH]c(=O)[nH]c(=O)c1F
T/C (dose: 3.0 mg/kg/injection, schedule: Q01DX011 (ip), vehicle: methylcellulose (MC)): 72 % of control
T/C (dose: 6.0 mg/kg/injection, schedule: Q01DX011 (ip), vehicle: methylcellulose (MC)): 63 % of control
T/C (dose: 12.0 mg/kg/injection, schedule: Q01DX011 (ip), vehicle: methylcellulose (MC)): 91 % of control

NNc1ncnc2nc[nH]c12
T/C [2]: 68 % of control
T/C [3]: 57 % of control

CC(=O)c1cc(C)[nH]c1C
T/C (dose: 29.0 mg/kg/injection, schedule: Q01DX011 (ip), vehicle: carboxymethylcellulose (CMC)): 58 % of control
T/C (dose: 57.5 mg/kg/injection, schedule: Q01DX011 (ip), vehicle: carboxymethylcellulose (CMC)): 99 % of control
T/C (dose: 115.0 mg/kg/injection, schedule: Q01DX011 (ip), vehicle: carboxymethylcellulose (CMC)): 29 % of control
T/C (dose: 115.0 mg/kg/injection, schedule: Q01DX011 (ip), vehicle: methylcellulose (MC)): 96 % of control and 77 % of control

Cn1c(=O)c2c(nc(CN3CCOCC3)n2C)n(C)c1=O
T/C (dose: 30.0 mg/kg/injection, schedule: Q01DX011 (ip), vehicle: methylcellulose (MC)): 122 % of control
T/C (dose: 60.0 mg/kg/injection, schedule: Q01DX011 (ip), vehicle: methylcellulose (MC)): 81 % of control
T/C (dose: 120.0 mg/kg/injection, schedule: Q01DX011 (ip), vehicle: methylcellulose (MC)): 80 % of control
T/C (dose: 240.0 mg/kg/injection, schedule: Q01DX011 (ip), vehicle: methylcellulose (MC)): 92 % of control

Nc1nc(Br)c2[nH]cnc2n1
T/C (dose: 60.0 mg/kg/injection, schedule: Q01DX011 (ip), vehicle: carboxymethylcellulose (CMC)): 1 % of control

Oc1ccc2ccccc2c1N=Nc1ccc(Cl)cc1
T/C (dose: 3.1 mg/kg/injection, schedule: Q01DX011 (ip), vehicle: other): 15 % of control
T/C (dose: 6.25 mg/kg/injection, schedule: Q01DX011 (ip), vehicle: other): 108 % of control
T/C [1]: 91 % of control and 84 % of control
T/C (dose: 25.0 mg/kg/injection, schedule: Q01DX011 (ip), vehicle: other): 56 % of control and 62 % of control
T/C [4]: 50 % of control
T/C [5]: 40 % of control
T/C (dose: 100.0 mg/kg/injection, schedule: Q01DX011 (ip), vehicle: other): 24 % of control and 49 % of control
T/C (dose: 100.0 mg/kg/injection, schedule: Q01DX011 (ip), vehicle: saline): 81 % of control
T/C (dose: 200.0 mg/kg/injection, schedule: Q01DX011 (ip), vehicle: carboxymethylcellulose (CMC)): 34 % of control
T/C (dose: 200.0 mg/kg/injection, schedule: Q01DX011 (ip), vehicle: other): 25 % of control
T/C (dose: 200.0 mg/kg/injection, schedule: Q01DX011 (ip), vehicle: saline): 38 % of control
T/C (dose: 400.0 mg/kg/injection, schedule: Q01DX011 (ip), vehicle: carboxymethylcellulose (CMC)): 36 % of control
T/C (dose: 400.0 mg/kg/injection, schedule: Q01DX011 (ip), vehicle: other): 14 % of control and 24 % of control
T/C (dose: 400.0 mg/kg/injection, schedule: Q01DX011 (ip), vehicle: saline): 28 % of control
T/C (dose: 800.0 mg/kg/injection, schedule: Q01DX011 (ip), vehicle: carboxymethylcellulose (CMC)): 16 % of control
T/C (dose: 800.0 mg/kg/injection, schedule: Q01DX011 (ip), vehicle: other): 6 % of control
T/C (dose: 1200.0 mg/kg/injection, schedule: Q01DX011 (ip), vehicle: other): 9 % of control

Cn1c(=O)c2c(nc(Cl)n2CCl)n(C)c1=O
T/C (dose: 25.0 mg/kg/injection, schedule: Q01DX011 (ip), vehicle: methylcellulose (MC)): 60 % of control

Cn1ncc2c(NCc3ccccc3)ncnc21
T/C [6]: 62 % of control and 66 % of control and 71 % of control
T/C (dose: 10.0 mg/kg/injection, schedule: Q01DX011 (ip), vehicle: carboxymethylcellulose (CMC)): 43 % of control and 58 % of control and 60 % of control
T/C (dose: 20.0 mg/kg/injection, schedule: Q01DX011 (ip), vehicle: carboxymethylcellulose (CMC)): 5 % of control and 24 % of control and 29 % of control

O=C(O)Cc1ccc(C2CCCCC2)cc1
T/C [3]: 164 % of control
T/C (dose: 75.0 mg/kg/injection, schedule: Q01DX011 (ip), vehicle: carboxymethylcellulose (CMC)): 81 % of control
T/C (dose: 150.0 mg/kg/injection, schedule: Q01DX011 (ip), vehicle: carboxymethylcellulose (CMC)): 120 % of control
T/C (dose: 300.0 mg/kg/injection, schedule: Q01DX011 (ip), vehicle: carboxymethylcellulose (CMC)): 53 % of control

O=C(O)CCc1c[nH]c2ccc(N(CCCl)CCCl)cc12
T/C (dose: 1.2 mg/kg/injection, schedule: Q01DX011 (ip), vehicle: carboxymethylcellulose (CMC)): 90 % of control
T/C (dose: 2.5 mg/kg/injection, schedule: Q01DX011 (ip), vehicle: carboxymethylcellulose (CMC)): 64 % of control
T/C [6]: 74 % of control

CC(C)Cn1cnc2c(SCc3ccccn3)nc(N)nc21
T/C (dose: 20.0 mg/kg/injection, schedule: Q01DX011 (ip), vehicle: methylcellulose (MC)): 5 % of control
T/C (dose: 65.0 mg/kg/injection, schedule: Q01DX011 (ip), vehicle: methylcellulose (MC)): 1 % of control

CCOC(O)C(F)(F)F (configuration not stated)
T/C (dose: 22.0 mg/kg/injection, schedule: Q01DX011 (ip), vehicle: methylcellulose (MC)): 110 % of control
T/C [2]: 83 % of control
T/C (dose: 44.0 mg/kg/injection, schedule: Q01DX011 (ip), vehicle: methylcellulose (MC)): 78 % of control
T/C [4]: 50 % of control
T/C (dose: 88.0 mg/kg/injection, schedule: Q01DX011 (ip), vehicle: methylcellulose (MC)): 30 % of control
T/C [5]: 32 % of control

COc1cc2c3c(c4ccc(OC)c(OC)c4c2cc1OC)CN1CCC[C@@H]1C3
T/C (dose: 5.0 mg/kg/injection, schedule: Q02DX006 (ip), vehicle: water): 65 % of control
T/C (dose: 10.0 mg/kg/injection, schedule: Q02DX006 (ip), vehicle: water): 52 % of control
T/C (dose: 15.0 mg/kg/injection, schedule: Q02DX006 (ip), vehicle: water): 33 % of control
T/C (dose: 20.0 mg/kg/injection, schedule: Q02DX006 (ip), vehicle: water): 21 % of control
